# Assay results reported in patent US8129398B2 (priority 2008, dated 2012).
# Molecular target: T1, HIV-integrase (Human immunodeficiency virus type 1 group M subtype B, UniProt P12497)
# T1 construct: Recombinant integrase (0.26 ng) was incubated with the beads
# Assay: HIV-Integrase Inhibition Activity (SPA bead integration assay with P33 labeled target DNA)
# Format: biochemical
# Conditions: in vitro activity, recombinant integrase, class symbols
# Protocol: HIV-Integrase Inhibition Activity. To evaluate in-vitro activity against HIV-integrase, 5 pmole of biotin labeled substrate DNA was bound to 100 μg of Streptavidin coated PVT SPA beads (Amersham Pharmacia Biotech). Recombinant integrase (0.26 ng) was incubated with the beads for 90 min at 37° C. Unbound enzyme was removed by washing the complex followed by addition of inhibitors and 0.1 fmol of P33 labeled target DNA. The reaction was stopped by adding EDTA to a final concentration of 10 mM. Samples were counted in TopCountNXT (Packard) and the CPM was used as a measure of integration. The reaction condition was as described in A. Engelman and R. Craigie, J. Virol. 69, 5908-5911 (1995). The sequences of substrate and target DNA were described in Nucleic Acid Research 22, 1121-1122 (1994). Activity equal to A refers to a compound having IC50=<10 nM while B and C denote compounds having […] and IC50>100 nM respectively.
row,Structure (SMILES),IC50 [µM]
1,"CC1(C)[C@@H]2CC[C@@]1(C)[C@@H](NS(C)(=O)=O)c1nc(C(=O)NCc3ccc(F)cc3)c(O)c(=O)n1C2 [Example 185, (7S,10R,11R)—N-(4-Fluorobenzyl)-3-hydroxy-10,12,12-trimethyl-11-((methylsulfonyl)amino)-4-oxo-6,7,8,9,10,11-hexahydro-4H-7,10-methanopyrimido[1,2-a]azocine-2-carboxamide]",> 0.1

# Same assay, conditions: recombinant integrase, class symbols; read-out: in vitro activity
row,Structure (SMILES),IC50 [µM]
1,CN(C)C(=O)C(=O)NC12CCC(CC1)Cn1c2nc(C(=O)NCc2ccc(Cl)c(Cl)c2)c(O)c1=O [Example 372],< 0.01
2,"Cc1c(CN(C)C(=O)C(=O)NC23CCC(CC2)Cn2c3nc(C(=O)NCc3ccc(F)cc3)c(O)c2=O)cnn1C [Example 95, N-((1,5-Dimethyl-1H-pyrazol-4-yl)methyl)-N′-(2-((4-fluorobenzyl)carbamoyl)-3-hydroxy-4-oxo-6,7,8,9-tetrahydro-7,10-ethanopyrimido[1,2-a]azepin-10(4H)-yl)-N-methylethanediamide]",< 0.01
3,CN(C)C(=O)C(=O)NC12CCC(CC1)Cn1c2nc(C(=O)NCc2ccccc2OC(F)(F)F)c(O)c1=O [Example 386],< 0.01
4,"CN(C)C(=O)C(=O)NC12CCC(CC1)Cn1c2nc(C(=O)NCc2cc(Br)c(F)cc2Br)c(O)c1=O [Example 56, N′-(2-((2,5-Dibromo-4-fluorobenzyl)carbamoyl)-3-hydroxy-4-oxo-6,7,8,9-tetrahydro-7,10-ethanopyrimido[1,2-a]azepin-10(4H)-yl)-N,N-dimethylethanediamide]",< 0.01
5,"CNC1c2nc(C(=O)NCc3ccc(F)cc3)c(O)c(=O)n2CC2CCC1C2 (stereo not drawn) [Example 9, 7,10-Methano-4H-pyrimido[1,2-a]azocine-2-carboxamide, N-[(4-fluorophenyl)methyl]-6,7,8,9,10,11-hexahydro-3-hydroxy-11-(methylamino)-4-oxo-]",> 0.1
6,"Cc1cc(CNC(=O)c2nc3n(c(=O)c2O)CC2CCC3(N(C)C(=O)C(=O)N(C)Cc3cnn(C)c3C)CC2)ccc1F [Example 172, N-((1,5-Dimethyl-1H-pyrazol-4-yl)methyl)-N′-(2-((4-fluoro-3-methylbenzyl)carbamoyl)-3-hydroxy-4-oxo-6,7,8,9-tetrahydro-7,10-ethanopyrimido[1,2-a]azepin-10(4H)-yl)-N,N′-dimethylethanediamide]",< 0.01
7,"CCN(CC)C(=O)C(=O)NC12CCC(CC1)Cn1c2nc(C(=O)NCc2ccc(F)cc2)c(O)c1=O [Example 97, N,N-Diethyl-N′-(2-((4-fluorobenzyl)carbamoyl)-3-hydroxy-4-oxo-6,7,8,9-tetrahydro-7,10-ethanopyrimido[1,2-a]azepin-10(4H)-yl)ethanediamide]",< 0.01
8,"CC(=O)NC12CCC(CC1)n1c2nc(C(=O)NCc2ccc(F)cc2)c(O)c1=O [Example 12, 6,9-Ethano-4H-pyrido[1,2-a]pyrimidine-2-carboxamide, 9-(acetylamino)-N-[(4-fluorophenyl)methyl]-6,7,8,9-tetrahydro-3-hydroxy-4-oxo-]",< 0.01
9,"Cn1ccc(C(=O)NC23CCC(CC2)Cn2c3nc(C(=O)NCc3ccc(F)cc3)c(O)c2=O)n1 [Example 245, 7,10-Ethanopyrimido[1,2-a]azepine-2-carboxamide, N-[(4-fluorophenyl)methyl]-4,6,7,8,9,10-hexahydro-3-hydroxy-10-[[(1-methyl-1H-pyrazol-3-yl)carbonyl]amino]-4-oxo-]",< 0.01
10,"Cn1cc(C(=O)NC23CCC(CC2)Cn2c3nc(C(=O)NCc3ccc(F)cc3)c(O)c2=O)nn1 [Example 248, 7,10-Ethanopyrimido[1,2-a]azepine-2-carboxamide, N-[(4-fluorophenyl)methyl]-4,6,7,8,9,10-hexahydro-3-hydroxy-10-[[(1-methyl-1H-1,2,3-triazol-4-yl)carbonyl]amino]-4-oxo-]",< 0.01
11,CN(C)C(=O)C(=O)NC12CCC(CC1)Cn1c2nc(C(=O)NCc2cccc(-c3ccccc3)c2)c(O)c1=O [Example 388],< 0.01
12,CN(C)C(=O)C(=O)NC12CCC(CC1)Cn1c2nc(C(=O)NCCC(C)(C)C)c(O)c1=O [Example 348],> 0.1
13,"CNC(=O)C(=O)NC12CCC(CC1)Cn1c2nc(C(=O)NCc2ccc(F)cc2)c(O)c1=O [Example 61, N-(2-((4-Fluorobenzyl)carbamoyl)-3-hydroxy-4-oxo-6,7,8,9-tetrahydro-7,10-ethanopyrimido[1,2-a]azepin-10(4H)-yl)-N′-methylethanediamide]",< 0.01
14,"NC12CCC(Cn3c1nc(C(=O)NCc1ccc(F)cc1)c(O)c3=O)OC2 (stereo not drawn) [Example 220, 10-Amino-N-(4-fluorobenzyl)-3-hydroxy-4-oxo-4,6,7,8,9,10-hexahydro-7,10-(epoxymethano)pyrimido[1,2-a]azepine-2-carboxamide]",0.01 to 0.1
15,COC(=O)N1CCCC1C(=O)NC12CCC(CC1)Cn1c2nc(C(=O)NCc2ccc(F)cc2)c(O)c1=O (stereo not drawn) [Example 406],< 0.01
16,Cc1cnc(CNC(=O)c2nc3n(c(=O)c2O)CC2CCC3(NC(=O)C(=O)N(C)C)CC2)cn1 [Example 389],0.01 to 0.1
17,"O=C(NC12CCC(CC1)Cn1c2nc(C(=O)NCc2ccc(F)cc2)c(O)c1=O)C(=O)N1CCC(F)(F)CC1 [Example 85, 10-(((4,4-Difluoro-1-piperidinyl) (oxo)acetyl)amino)-N-(4-fluorobenzyl)-3-hydroxy-4-oxo-4,6,7,8,9,10-hexahydro-7,10-ethanopyrimido[1,2-a]azepine-2-carboxamide]",< 0.01
18,"Cc1c(CN(C)C(=O)C(=O)N(C)C23CCC(CC2)Cn2c3nc(C(=O)NCc3ccc(F)cc3)c(O)c2=O)cnn1C [Example 171, N-((1,5-Dimethyl-1H-pyrazol-4-yl)methyl)-N′-(2-((4-fluorobenzyl)carbamoyl)-3-hydroxy-4-oxo-6,7,8,9-tetrahydro-7,10-ethanopyrimido[1,2-a]azepin-10(4H)-yl)-N,N′-dimethylethanediamide]",< 0.01
19,"Cc1cc(CNC(=O)c2nc3n(c(=O)c2O)CC2CCC3(N(C)C(=O)c3cccnc3)CC2)ccc1F [Example 319, 7,10-Ethanopyrimido[1,2-a]azepine-2-carboxamide, N-[(4-fluoro-3-methylphenyl)methyl]-4,6,7,8,9,10-hexahydro-3-hydroxy-10-[methyl(3-pyridinylcarbonyl)amino]-4-oxo-]",< 0.01
20,"COC(=O)c1sccc1S(=O)(=O)N1CCN(C(=O)C(=O)NC23CCC(CC2)Cn2c3nc(C(=O)NCc3ccc(F)cc3)c(O)c2=O)CC1 [Example 147, Methyl 3-((4-(((2-((4-fluorobenzyl)carbamoyl)-3-hydroxy-4-oxo-6,7,8,9-tetrahydro-7,10-ethanopyrimido[1,2-a]azepin-10(4H)-yl)amino) (oxo)acetyl)-1-piperazinyl)sulfonyl)-2-thiophenecarboxylate]",< 0.01
21,"COC[C@H]1CCCN1C(=O)C(=O)NC12CCC(CC1)Cn1c2nc(C(=O)NCc2ccc(F)cc2)c(O)c1=O [Example 88, N-(4-Fluorobenzyl)-3-hydroxy-10-((((2R)-2-(methoxymethyl)-1-pyrrolidinyl)(oxo)acetyl)amino)-4-oxo-4,6,7,8,9,10-hexahydro-7,10-ethanopyrimido[1,2-a]azepine-2-carboxamide]",< 0.01
22,"Cc1cc(CNC(=O)c2nc3n(c(=O)c2O)CC2CCC3(NC(=O)C(=O)N(C)C)CC2)ccc1F [Example 113, N′-(2-((4-Fluoro-3-methylbenzyl)carbamoyl)-3-hydroxy-4-oxo-6,7,8,9-tetrahydro-7,10-ethanopyrimido[1,2-a]azepin-10(4H)-yl)-N,N-dimethylethanediamide]",< 0.01
23,"CN(C)C(=O)C(=O)N(CCO)C12CCC(CC1)Cn1c2nc(C(=O)NCc2ccc(F)cc2)c(O)c1=O [Example 175, N-(2-((4-Fluorobenzyl)carbamoyl)-3-hydroxy-4-oxo-6,7,8,9-tetrahydro-7,10-ethanopyrimido[1,2-a]azepin-10(4H)-yl)-N-(2-hydroxyethyl)-N′,N′-dimethylethanediamide]",< 0.01
24,"CS(=O)(=O)N1CCN(C(=O)N2CCN(C(=O)C(=O)NC34CCC(CC3)Cn3c4nc(C(=O)NCc4ccc(F)cc4)c(O)c3=O)CC2)C1=O [Example 144, N-(4-Fluorobenzyl)-3-hydroxy-10-(((4-((3-(methylsulfonyl)-2-oxo-1-imidazolidinyl)carbonyl)-1-piperazinyl)(oxo)acetyl)amino)-4-oxo-4,6,7,8,9,10-hexahydro-7,10-ethanopyrimido[1,2-a]azepine-2-carboxamide]",< 0.01
25,"O=C(NC12CCC(CC1)Cn1c2nc(C(=O)NCc2ccc(F)cc2)c(O)c1=O)C(=O)N1CCN(C(=O)c2ccco2)CC1 [Example 143, N-(4-Fluorobenzyl)-10-(((4-(2-furanylcarbonyl)-1-piperazinyl)(oxo)acetyl)amino)-3-hydroxy-4-oxo-4,6,7,8,9,10-hexahydro-7,10-ethanopyrimido[1,2-a]azepine-2-carboxamide]",< 0.01
26,"O=C(NC12CCC(CC1)Cn1c2nc(C(=O)NCc2ccc(F)cc2)c(O)c1=O)C(=O)N1CCN(C(=O)c2cccs2)CC1 [Example 142, N-(4-Fluorobenzyl)-3-hydroxy-4-oxo-10-((oxo(4-(2-thiophenylcarbonyl)-1-piperazinyl)acetyl)amino)-4,6,7,8,9,10-hexahydro-7,10-ethanopyrimido[1,2-a]azepine-2-carboxamide]",< 0.01
